In PubChem BioAssay AID179 (DTP/NCI, 2004) one finds EC50, IC50 and outcome data, which are given here for 71 compounds.

The test system of this assay is CEM cells HIV-1 protection, formazan growth assay. Put plainly: NCI AIDS Antiviral Assay. The following applies: for IC50: measured here: growth of uninfected CEM cells. An outline of the steps: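 Human CEM cells, uninfected and HIV-1-infected, received five drug concentrations, and growth was read by soluble formazan assay. Compounds giving at least 50% protection were retested; reproducible 100% protection defined confirmed active.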

The source made the active and inactive calls.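 The calls were made as follows: active = compounds giving half or more protection of infected cells from virus-caused growth loss, again on retest; inactive = the rest.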 Where a SMILES comes first, the peptide text is derived from it. [ ]: non-standard residue; d: D form. The star is where a group is joined. ξ: configuration not given here. Ac5c = NC1(C(=O)O)CCCC1; Boc = CC(C)(C)OC(=O)*; ξS = NC(CO)C(=O)O

What is called EC50 is the concentration giving half of the maximal effect. As usually defined, the IC50 is the point on the concentration scale where inhibition reaches its midpoint. Read a low IC50 as inhibition by little substance. As for `NC(=S)N/C=C\c1nc2ccccc2[nH]c1=O`, the EC50 is above 200 µM and the IC50 was above 200 µM.

As to `COC(=O)C12C3C=CC(O3)C1C1C=CC2O1` (configuration not stated), the result was inactive.

With `COC(=O)C(Cc1c[nH]c2ccccc12)NC(=O)C(Cc1c[nH]c2ccccc12)NC(=O)C(Cc1c[nH]c2ccccc12)NC(=O)C(Cc1c[nH]c2ccccc12)NC(=O)C(Cc1c[nH]c2ccccc12)NC(=O)C(Cc1c[nH]c2ccccc12)NC(=O)C(Cc1c[nH]c2ccccc12)NC(=O)C(Cc1c[nH]c2ccccc12)NC(=O)OC(C)(C)C` (configuration not stated) (Boc-WWWWWWWW-OMe; configuration not given here), the EC50 was above 100 µM and the IC50 came to 40.7 µM.

With `Cc1c2ccccc2c(C)c2c3c(ccc12)C(=O)C=CC3=O`, the result was inactive.

In the case of `CCOC(=O)CN1CCC(C(O)c2cc3ccccc3[nH]2)CC1` (configuration not stated), the EC50 is above 537 µM and the IC50 came to 525 µM.

In the case of `COc1ccc(C2C(Cl)C(=O)N2NC(=O)c2ccccc2O)cc1` (configuration not stated), the EC50 was above 145 µM and the IC50 was above 145 µM.

For the compound `CC(C)c1ccc(C=Nc2ccc(SSc3ccc(N=Cc4ccc(C(C)C)cc4)cc3)cc2)cc1`, the EC50 was above 200 µM and the IC50 turned out to be 29.5 µM.

With `Cc1ccc2c(c1)nc1n2C(c2c(F)cccc2F)SC1` (configuration not stated), the EC50 is above 200 µM and the half-inhibitory concentration (IC50) was 33.1 µM.

For the compound `COC(=O)c1c(C)c2c(c(C)c1C(=O)OC)-c1c(C)ccc3ccc(C)c-2c13`, the EC50 was above 100 µM and the IC50 stood at 3.72 µM.

Regarding `N#Cc1c(=O)c2cccnc2n2c1[nH]c1ccccc12`, the EC50 was above 200 µM and the IC50 is above 200 µM.

Regarding `CCOc1ccc(NC(=O)C2=C(C)NC(C)=C(C(=O)Nc3ccc(OCC)cc3)C2c2ccc([N+](=O)[O-])cc2)cc1`, the EC50 was above 12.9 µM and the IC50 was above 12.9 µM.

For `O=S(=O)(Sc1ccccc1)c1ccccc1`, the EC50 is above 81.3 µM and the IC50 was 13.8 µM.

For `CN(C)CCNC(=O)c1cc([N+](=O)[O-])cc2c1Oc1ccccc1O2`, the EC50 was above 200 µM and the IC50 was found to be 10.5 µM.

In the case of `COc1cc2c(cc1O)C1Cc3ccc(OC)c(O)c3C(C2)N1C` (configuration not stated), the EC50 was above 200 µM and the IC50 came to 85.1 µM.

Regarding `C=C1C(=O)OC2/C=C(\C=O)CC/C=C(\C)C(O)C[C@@H]12` (some centres not stated), the EC50 was above 200 µM and the IC50 stood at 2.95 µM.

Regarding `O=C(O)CC1CC=CCC1CC(=O)O` (configuration not stated), the EC50 was above 200 µM and the IC50 is above 200 µM.

Regarding `Clc1ccc(CCN2CCOCC2)c(Cl)c1`, the EC50 is above 63.1 µM and the IC50 was above 63.1 µM.

In the case of `Cc1ccc2nc(NC(=S)NCCCCNC(=S)Nc3ccc4cc(C)ccc4n3)ccc2c1`, the EC50 is above 10.7 µM and the IC50 is above 10.7 µM.

With `O=c1c2cc3c(=O)n(O)c(=O)c3cc2c(=O)n1O`, the EC50 is above 200 µM and the IC50 is above 200 µM.

`CC(C)c1c2[nH]c3ccccc3c2c(C(C)C)c2[nH]c3ccccc3c12`: the EC50 is above 20 µM and the IC50 is above 20 µM.

On to `Cc1ccc(/C=N/NS(=O)(=O)c2ccc(/C=C3\NC(=O)NC3=O)cc2)cc1`, for which the EC50 was above 200 µM and the IC50 is above 200 µM.

Take `CC(=O)NC(NCCN)(c1ccccc1)c1ccccc1`: the EC50 was above 200 µM and the IC50 was above 200 µM.

In the case of `CCCCCCCCCCCCC(Br)C(=O)OCC1OC(n2cc(C)c(=O)[nH]c2=O)CC1N=[N+]=[N-]` (configuration not stated), the EC50 was 0.0977 µM and the IC50 was 3.39 µM.

With `O=S(=O)(SS(=O)(=O)c1ccc(Cl)cc1)c1ccc(Cl)cc1`, the EC50 was above 93.3 µM and the IC50 was above 93.3 µM.

For the compound `O=C1CC(=O)n2cnc3cccc(c32)N1`, the EC50 was 17.4 µM and the IC50 was above 200 µM.

Regarding `COc1cc(C(=O)/C=C/c2ccc(OCCSCCCCCCCCCCSCCOc3ccc(/C=C/C(=O)c4cc(OC)c(OC)c(OC)c4)cc3)cc2)cc(OC)c1OC`, the EC50 was above 151 µM and the IC50 was above 151 µM.

With `NN=C1/C(=C\c2ccccc2)CCC/C1=C/c1ccccc1`, the EC50 is above 64.6 µM and the IC50 was above 64.6 µM.

Take `CCOC(=O)NC(Nc1cccc(F)c1)(C(F)(F)F)C(F)(F)F`: the EC50 was above 200 µM and the IC50 was above 200 µM.

Turning to `COC(=O)C1=C(C(=O)Nc2cccnc2Cl)N(c2ccc(OC)cc2[N+](=O)[O-])C(c2ccc(C)cc2)=CC1c1ccc(OC)cc1OC` (configuration not stated), the EC50 was above 100 µM and the IC50 was 1.95 µM.

For the compound `COc1ccc2cc(C(=O)O)ccc2c1OC`, the EC50 is above 200 µM and the IC50 is above 200 µM.

With `O=C(O)CCC(=O)Nc1ccccc1`, the EC50 is above 200 µM and the IC50 was above 200 µM.

For the compound `Brc1ccc2nncc(N3CC3)c2c1`, the outcome was inactive.

For `CC12CCC(C(Nc3cc(C(F)(F)F)cc(C(F)(F)F)c3)C1=O)C2(C)C` (configuration not stated), the EC50 was above 200 µM and the IC50 was above 200 µM.

In the case of `O=C1/C(=C/c2ccccc2)N=C(c2ccccc2)N1n1c(-c2ccccc2)nc2ccccc2c1=O`, the EC50 is above 200 µM and the IC50 was found to be 75.9 µM.

As for `OC1C2[C@@H](O)CCCN2C[C@@H](O)[C@H]1O` (some centres not stated), the EC50 was above 200 µM and the IC50 was above 200 µM.

Take `O=C(O)c1ccccc1S`: the EC50 is above 200 µM and the IC50 was above 200 µM.

Turning to `C1CCN(c2nsc(N3CCCCC3)n2)CC1`, the outcome was inactive.

`CCOC(=O)/C(C#N)=C(O)/C(=C/c1ccccc1Cl)NC(=O)c1ccccc1`: the EC50 is above 631 µM and the IC50 is above 631 µM.

Turning to `COc1ccc(C2(C(OC)OC)NC(=O)N(C)C2=O)cc1` (configuration not stated), the EC50 is above 200 µM and the half-inhibitory concentration (IC50) is above 200 µM.

Consider `N/C(=N/N=C/c1ccc(Cl)c([N+](=O)[O-])c1)NO`, for which the result was inactive.

For `CC(C)(C)NC(NC(C)(C)C)=C(C(Cl)=C(Cl)Cl)[N+](=O)[O-]`, the EC50 was above 200 µM and the IC50 is above 200 µM.

As to `Cc1cc(C)c2c(c1)CC2N` (configuration not stated), the EC50 was above 1350 µM and the IC50 was found to be 490 µM.

Consider `CCCCCCCCCCCCC(=O)NC1=C(O)c2ccccc2C(=O)C1=O`, for which the result was inactive.

On to `CCOC(=O)C(CO)NC(=O)C1(NC(C)=O)CCCC1` (configuration not stated) (Ac-[Ac5c]-[ξS]-OEt), for which the EC50 was above 200 µM and the IC50 was above 200 µM.

Consider `COc1ccc(/C=C2N=C(/C=C/c3ccccc3)OC\2=O)cc1OC`, for which the EC50 is 11 µM and the IC50 is 97.7 µM.

`CCOC(=O)[C@@H]1ON2O[C@H](OC3CCCCC3c3ccccc3)C[C@H]3OC(=O)[C@@H]1C32` (some centres not stated): the EC50 was above 200 µM and the IC50 was found to be 117 µM.

Consider `Nc1nc(Cl)c(N)c(NCC2(CO)CCC(OCc3ccccc3)C2)n1` (configuration not stated), for which the EC50 is above 200 µM and the IC50 was 26.9 µM.

Turning to `COc1ccc2c(=O)c3ccoc3[nH]c2c1`, the EC50 is above 100 µM and the concentration for half-maximal inhibition (IC50) is above 100 µM.

`C=C=C(C)CN(CC)CC`: the EC50 is above 1580 µM and the IC50 is above 1580 µM.

Consider `CC1(C)CC(=O)C(/C=N/C(=S)NCc2ccccc2)=C(O)C1`, for which the EC50 is above 200 µM and the IC50 was above 200 µM.

With `CC(=Nc1ccncc1)C(C)=Nc1ccncc1`, the EC50 was 20.9 µM and the IC50 was 36.3 µM.

In the case of `C=C(C)[C@@H]1CC[C@]2(CNC(=O)CC3(CC(=O)O)CCCC3)CC[C@]3(C)[C@H](CC[C@@H]4[C@@]5(C)CC[C@H](NC(=O)CC6(CC(=O)O)CCCC6)C(C)(C)[C@@H]5CC[C@]43C)[C@@H]12`, the EC50 was above 200 µM and the IC50 worked out at 13.5 µM.

Take `CCO/C=N\C1=C(C#N)SC2=N/C(=C\c3ccco3)C(=O)N21`: the result was inactive.

Turning to `Cn1cccnc1=O`, the EC50 was above 200 µM and the IC50 was above 200 µM.

Turning to `Cc1ccc(S(=O)(=O)OC2C3OC(C)(C)OC3OC2C2CSC(=S=O)S2)cc1` (configuration not stated), the EC50 was above 67.6 µM and the half-maximal inhibitory concentration (IC50) was above 67.6 µM.

Regarding `CC1(C)OC2CN(C(=O)OCc3ccccc3)C(CO)C2O1` (configuration not stated), the outcome was inactive.

`CC(C)C(Nc1c2ccccc2[n+](C)c2ccccc12)C(=O)O` (configuration not stated): the outcome was inactive.

As for `NC(CCC(=O)NC(CSc1ccc([N+](=O)[O-])cc1[N+](=O)[O-])C(=O)NCC(=O)O)C(=O)O` (configuration not stated), the EC50 was above 525 µM and the IC50 is above 525 µM.

As for `COP(=O)(CC(=O)C1OC(C)(C)OC1C(O)COCc1ccccc1)OC` (configuration not stated), the EC50 was above 324 µM and the IC50 was above 324 µM.

For `N#C/C(=C\c1ccc(O)c(O)c1)C(=S)NCc1ccccc1`, the EC50 was above 200 µM and the IC50 worked out at 32.4 µM.

As to `COc1ccc(C2=C(N)c3ncccc3C2=O)cc1`, the EC50 is above 200 µM and the IC50 was 132 µM.

Take `CC(C)COC(=O)Sc1ccccc1C(=O)NC(C)C(N)=O` (configuration not stated): the EC50 came to 1.1 µM and the IC50 was found to be 115 µM.

Turning to `Clc1cccc(NC2=NCCN=C(Nc3cccc(Cl)c3)SS2)c1`, the outcome was inactive.

As to `COC(=O)c1ccc2c(c1)CC1(C2)Cc2cc3c(c(C(=O)OC)c2C1)CCCC3` (configuration not stated), the EC50 was above 200 µM and the IC50 is above 200 µM.

Take `CC1=NN(C(=O)c2ccccc2O)C(=O)/C1=C/c1ccc([N+](=O)[O-])cc1`: the EC50 is above 53.7 µM and the IC50 came out at 0.0912 µM.

With `O=C1NCCCNCCCNCCCNC(=O)c2cccc1n2`, the EC50 was above 200 µM and the half-inhibitory concentration (IC50) was determined as 186 µM.

As to `O=C(O)c1[nH][nH]c(=O)c1N=Nc1ccc(/C=C/c2ccc(N=Nc3c(C(=O)O)[nH][nH]c3=O)cc2S(=O)(=O)O)c(S(=O)(=O)O)c1`, the EC50 is above 200 µM and the IC50 was above 200 µM.

Consider `COC(=O)N/N=C/c1oc(-c2ccccc2)c(-c2ccccc2)c1[N+](=O)[O-]`, for which the EC50 is above 61.7 µM and the IC50 is above 61.7 µM.

As for `O=[N+]([O-])c1ccccc1N=Cc1ccccc1O`, the EC50 was above 200 µM and the IC50 was above 200 µM.

As to `C[N+]1(C)N=C(c2ccccc2)C=C1[O-]`, the EC50 is above 200 µM and the IC50 is above 200 µM.

Turning to `CC1C=C[C@H](Sc2ccccc2)CC[C@@]1(C)O` (some centres not stated), the EC50 is above 251 µM and the IC50 came to 22.4 µM.
